Measured values: ChEMBL document CHEMBL1201862, “PubChem BioAssay data set” (2004)
Active and inactive are the calls of the source.

Columns and labels:
[1] = HEK293T cytotoxicity, dose response, cytotoxicity control for miR-122 modulator project, cell-based, inhibitor set, cherry-pick, set 2 (AID 720697); format: functional
[2] = cytotoxicity in HEK-293T cells, dose response, cytotoxicity control for TCR NF-kB inhibitor project, luminescence, T-cell screen hits (AID 489026); format: functional, cell-based;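 note: cells exposed to compound about 14 hours before the viability readout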
[3] = inhibitors of SNCA 5'UTR-driven reporter translation, confirmation, H4 neuroglioma cells, luminescence (AID 1988); format: functional, cell-based
BJ [4] = assay: cells; format: functional, cell-based; details: Homo sapiens
BJ [5] = assay: cytotoxicity toward BJ-TERT fibroblasts, dose response, cell-based, RAS-independent, luminescence (AID 1933); format: functional; details: Homo sapiens
[6] = Luminescence Cell-Based Dose Response HTS to Identify Inhibitors of 5'UTR Stem-Loop Driven Prion Protein mRNA Translation in H4 Neuroglioblastoma Cells. [Related pubchem assays: 1827 (Project Summary), 1813 (Primary HTS)]; format: functional
BJ [7] = assay: cytotoxicity toward BJ-TERT-LT-ST fibroblasts, dose response, cell-based, RAS-independent, luminescence (AID 1935); format: functional; details: Homo sapiens;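 note: BJ fibroblasts immortalized with TERT plus LT and ST oncogenes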
[8] = inhibitors of firefly luciferase expression or activity, dose response, H4 neuroglioma cells, luminescence (AID 1990); format: functional, cell-based
Nonstructural protein 1 = Nonstructural protein 1 (Influenza A virus, UniProt Q194T2); format: functional, Influenza A virus (A/California/07/2009(H1N1))
[9] = cytotoxicity toward NIH3T3 fibroblasts, dose response, counter-screen, cell-based, ATP luminescence, mouse fibroblasts (AID 2010); format: functional;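 note: cells exposed to compound for about 90 hours before reading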
[10] = inhibitors of intracellular T. cruzi replication, confirmation, NIH3T3 host cells, beta-gal luminescence (AID 2044); format: functional, cell-based;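 note: intracellular parasites grown in NIH/3T3 mouse fibroblasts as host cells; luminescent beta-galactosidase reporter signal from transgenic T. cruzi replicating inside host cells; inhibitors lower the luminescence signal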
INS1 = assay: beta cell apoptosis inhibitors, cytokine rescue, dose response, luminescence, retest (AID 449756); format: functional, cell-based; details: Rattus norvegicus, INS1;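 note: cell death triggered by IL-1 beta plus TNF-alpha plus IFN-gamma mixture; protective hits raise ATP signal compared with cytokine alone wells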
[11] = cytotoxicity toward DRD oncogenic fibroblasts, dose response, cell-based, non-viral oncogenic, luminescence (AID 1934); format: functional; details: Homo sapiens
[12] = intracellular Trypanosoma cruzi inhibitors in host cells – cell-based, plate reader, cherry-pick samples, set 3, dose response (AID 651818); format: functional;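 note: compounds incubated with infected cells for about four days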
[13] = biological target: T1, Short transient receptor potential channel 4 (Mus musculus, UniProt Q9QUQ5); assay: mouse TRPC4 channel inhibitors, dose response, cell-based, HEK293 TRPC4/mu-opioid, Fluo-4 calcium (AID 434942); format: functional;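 note: potency of inhibitors blocking the TRPC4 calcium response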
T1 sequence (Q9QUQ5 whole entry): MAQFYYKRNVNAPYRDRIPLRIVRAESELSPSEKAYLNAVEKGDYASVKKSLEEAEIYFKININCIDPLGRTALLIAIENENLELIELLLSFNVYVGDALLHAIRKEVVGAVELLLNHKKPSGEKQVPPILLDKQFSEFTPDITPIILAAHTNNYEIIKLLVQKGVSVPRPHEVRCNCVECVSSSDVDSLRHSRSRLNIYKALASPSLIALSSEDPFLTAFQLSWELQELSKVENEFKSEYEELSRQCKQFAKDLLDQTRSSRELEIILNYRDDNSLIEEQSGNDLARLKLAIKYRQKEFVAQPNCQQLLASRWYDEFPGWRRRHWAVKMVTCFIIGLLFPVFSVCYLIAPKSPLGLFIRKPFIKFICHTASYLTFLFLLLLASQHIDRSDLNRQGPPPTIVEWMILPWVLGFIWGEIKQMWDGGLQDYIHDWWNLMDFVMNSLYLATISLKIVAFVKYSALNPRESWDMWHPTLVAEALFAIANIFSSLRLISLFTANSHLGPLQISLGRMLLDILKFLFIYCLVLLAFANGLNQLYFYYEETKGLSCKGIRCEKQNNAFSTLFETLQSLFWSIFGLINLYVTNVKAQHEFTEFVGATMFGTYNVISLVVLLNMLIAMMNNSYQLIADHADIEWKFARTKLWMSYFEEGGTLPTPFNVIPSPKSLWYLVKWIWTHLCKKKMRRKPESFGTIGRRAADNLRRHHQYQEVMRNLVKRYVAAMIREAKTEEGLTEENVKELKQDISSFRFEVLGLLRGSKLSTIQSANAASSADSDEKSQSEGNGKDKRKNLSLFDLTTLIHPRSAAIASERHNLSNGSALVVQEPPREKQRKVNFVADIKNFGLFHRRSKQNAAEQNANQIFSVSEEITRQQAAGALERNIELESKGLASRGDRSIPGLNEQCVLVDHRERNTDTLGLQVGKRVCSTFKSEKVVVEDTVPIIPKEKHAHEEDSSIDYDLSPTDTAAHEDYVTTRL

[14] = biological target: T2, DNA repair and recombination protein RAD54-like (Homo sapiens, UniProt Q92698); assay: inhibitors of human RAD54 branch migration, confirmation, biochemical, fluorescence, cherry-picked samples, dose series (AID 651657); format: functional
T2 sequence (Q92698 whole entry): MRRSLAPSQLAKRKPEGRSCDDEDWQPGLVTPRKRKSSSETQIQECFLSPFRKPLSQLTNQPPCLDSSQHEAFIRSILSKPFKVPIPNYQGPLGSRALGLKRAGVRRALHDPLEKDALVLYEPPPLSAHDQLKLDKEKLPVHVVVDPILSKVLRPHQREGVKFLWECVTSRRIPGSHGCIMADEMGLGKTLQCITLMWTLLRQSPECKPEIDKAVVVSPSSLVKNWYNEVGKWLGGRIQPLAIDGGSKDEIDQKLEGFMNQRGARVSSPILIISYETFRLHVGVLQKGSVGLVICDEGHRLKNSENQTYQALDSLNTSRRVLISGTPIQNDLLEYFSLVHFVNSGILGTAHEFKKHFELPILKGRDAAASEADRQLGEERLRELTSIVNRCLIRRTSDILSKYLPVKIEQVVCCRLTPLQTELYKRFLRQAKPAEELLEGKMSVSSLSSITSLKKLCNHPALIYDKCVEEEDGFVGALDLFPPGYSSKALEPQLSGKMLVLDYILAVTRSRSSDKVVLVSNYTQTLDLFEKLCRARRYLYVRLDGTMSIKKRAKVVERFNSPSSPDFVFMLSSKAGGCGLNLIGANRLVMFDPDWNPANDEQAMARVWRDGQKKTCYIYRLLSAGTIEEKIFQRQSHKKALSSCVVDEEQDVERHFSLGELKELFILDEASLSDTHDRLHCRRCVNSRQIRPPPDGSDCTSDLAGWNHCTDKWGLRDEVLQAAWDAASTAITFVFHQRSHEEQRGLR

[15] = biological target: T3, DNA repair protein RAD52 homolog (Homo sapiens, UniProt P43351); format: functional, biochemical
T3 sequence (P43351 whole entry): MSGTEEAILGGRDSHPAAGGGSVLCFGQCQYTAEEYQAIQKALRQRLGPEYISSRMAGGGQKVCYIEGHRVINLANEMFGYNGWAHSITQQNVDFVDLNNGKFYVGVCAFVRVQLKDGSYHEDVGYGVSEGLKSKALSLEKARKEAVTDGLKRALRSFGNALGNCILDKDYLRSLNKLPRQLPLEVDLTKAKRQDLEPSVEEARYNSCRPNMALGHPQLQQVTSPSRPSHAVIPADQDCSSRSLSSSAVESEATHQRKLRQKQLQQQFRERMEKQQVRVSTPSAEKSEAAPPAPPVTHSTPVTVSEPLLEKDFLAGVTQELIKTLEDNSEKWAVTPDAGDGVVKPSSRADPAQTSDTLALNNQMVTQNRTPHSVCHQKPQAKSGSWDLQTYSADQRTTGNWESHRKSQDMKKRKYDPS

Cytochrome P450 2D6 = Cytochrome P450 2D6 (Homo sapiens, UniProt P10635);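 note: CYP2D6 member of a cytochrome P450 panel assay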
[16] = biological target: Voltage-dependent T-type calcium channel subunit alpha-1H (Homo sapiens, UniProt O95180); format: functional;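 note: channel activity triggered by adding a high calcium stimulation buffer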
[17] = biological target: T4, Microphthalmia-associated transcription factor (Homo sapiens, UniProt O75030); assay: TRPM1 promoter luciferase signal decrease, dose response, MITF inhibitor project, cell-based, SK-MEL-5, cherry-picked, set 3 (AID 493073); format: functional
T4 sequence (O75030 whole entry): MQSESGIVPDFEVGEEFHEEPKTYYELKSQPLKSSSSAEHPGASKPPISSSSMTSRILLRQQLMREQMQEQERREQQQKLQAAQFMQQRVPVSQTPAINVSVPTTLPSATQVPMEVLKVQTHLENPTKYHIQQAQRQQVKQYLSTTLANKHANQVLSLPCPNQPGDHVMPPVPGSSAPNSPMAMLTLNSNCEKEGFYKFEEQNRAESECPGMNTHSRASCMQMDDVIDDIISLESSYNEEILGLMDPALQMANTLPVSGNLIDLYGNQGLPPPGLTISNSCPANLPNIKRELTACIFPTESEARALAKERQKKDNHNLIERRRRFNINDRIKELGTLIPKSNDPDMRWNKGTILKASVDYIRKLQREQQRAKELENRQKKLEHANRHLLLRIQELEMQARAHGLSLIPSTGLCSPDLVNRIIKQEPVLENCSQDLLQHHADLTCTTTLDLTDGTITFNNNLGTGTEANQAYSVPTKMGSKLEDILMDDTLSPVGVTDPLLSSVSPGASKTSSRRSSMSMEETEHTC

[18] = control 3'UTR Renilla luciferase suppression, dose response, counter-screen for Shn3 inhibitor project, cell-based, Clone20-Shn3RL, cherry-picked (AID 624133); format: functional
[19] = Shn3 3'UTR reporter inhibitors, dose response, cell-based, Clone20 osteoblasts, firefly luciferase, cherry-picked (AID 624132); format: functional;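 note: firefly luciferase luminescence from reporter carrying the Shn3 3'UTR in osteoblasts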
[20] = HepG2 cell cytotoxicity, dose response, cytotoxicity control for Shn3 inhibitor project, CellTiter-Glo, cherry-picked (AID 624134); format: functional, cell-based

Chain of Nonstructural protein 1 (Q194T2 whole entry): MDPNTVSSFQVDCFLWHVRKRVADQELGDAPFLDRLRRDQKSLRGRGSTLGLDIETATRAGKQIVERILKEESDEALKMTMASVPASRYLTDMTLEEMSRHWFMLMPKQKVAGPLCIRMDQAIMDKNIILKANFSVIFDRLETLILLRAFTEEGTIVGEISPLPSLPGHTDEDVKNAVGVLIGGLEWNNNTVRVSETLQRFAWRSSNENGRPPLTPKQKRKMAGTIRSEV
Chain of Cytochrome P450 2D6 (P10635 whole entry): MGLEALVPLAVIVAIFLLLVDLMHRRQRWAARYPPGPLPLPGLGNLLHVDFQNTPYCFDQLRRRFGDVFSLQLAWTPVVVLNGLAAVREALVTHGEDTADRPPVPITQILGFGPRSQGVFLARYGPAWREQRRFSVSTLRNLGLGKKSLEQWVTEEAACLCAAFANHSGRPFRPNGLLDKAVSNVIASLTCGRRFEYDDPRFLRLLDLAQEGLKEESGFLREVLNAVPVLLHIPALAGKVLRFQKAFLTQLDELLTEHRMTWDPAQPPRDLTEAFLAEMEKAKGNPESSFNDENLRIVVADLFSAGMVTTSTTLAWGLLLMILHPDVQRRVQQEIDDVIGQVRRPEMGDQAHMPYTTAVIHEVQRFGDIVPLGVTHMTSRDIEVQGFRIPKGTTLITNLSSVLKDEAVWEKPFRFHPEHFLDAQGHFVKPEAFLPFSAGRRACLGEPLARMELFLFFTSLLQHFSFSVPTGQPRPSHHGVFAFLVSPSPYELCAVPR
Chain of Voltage-dependent T-type calcium channel subunit alpha-1H (O95180 whole entry): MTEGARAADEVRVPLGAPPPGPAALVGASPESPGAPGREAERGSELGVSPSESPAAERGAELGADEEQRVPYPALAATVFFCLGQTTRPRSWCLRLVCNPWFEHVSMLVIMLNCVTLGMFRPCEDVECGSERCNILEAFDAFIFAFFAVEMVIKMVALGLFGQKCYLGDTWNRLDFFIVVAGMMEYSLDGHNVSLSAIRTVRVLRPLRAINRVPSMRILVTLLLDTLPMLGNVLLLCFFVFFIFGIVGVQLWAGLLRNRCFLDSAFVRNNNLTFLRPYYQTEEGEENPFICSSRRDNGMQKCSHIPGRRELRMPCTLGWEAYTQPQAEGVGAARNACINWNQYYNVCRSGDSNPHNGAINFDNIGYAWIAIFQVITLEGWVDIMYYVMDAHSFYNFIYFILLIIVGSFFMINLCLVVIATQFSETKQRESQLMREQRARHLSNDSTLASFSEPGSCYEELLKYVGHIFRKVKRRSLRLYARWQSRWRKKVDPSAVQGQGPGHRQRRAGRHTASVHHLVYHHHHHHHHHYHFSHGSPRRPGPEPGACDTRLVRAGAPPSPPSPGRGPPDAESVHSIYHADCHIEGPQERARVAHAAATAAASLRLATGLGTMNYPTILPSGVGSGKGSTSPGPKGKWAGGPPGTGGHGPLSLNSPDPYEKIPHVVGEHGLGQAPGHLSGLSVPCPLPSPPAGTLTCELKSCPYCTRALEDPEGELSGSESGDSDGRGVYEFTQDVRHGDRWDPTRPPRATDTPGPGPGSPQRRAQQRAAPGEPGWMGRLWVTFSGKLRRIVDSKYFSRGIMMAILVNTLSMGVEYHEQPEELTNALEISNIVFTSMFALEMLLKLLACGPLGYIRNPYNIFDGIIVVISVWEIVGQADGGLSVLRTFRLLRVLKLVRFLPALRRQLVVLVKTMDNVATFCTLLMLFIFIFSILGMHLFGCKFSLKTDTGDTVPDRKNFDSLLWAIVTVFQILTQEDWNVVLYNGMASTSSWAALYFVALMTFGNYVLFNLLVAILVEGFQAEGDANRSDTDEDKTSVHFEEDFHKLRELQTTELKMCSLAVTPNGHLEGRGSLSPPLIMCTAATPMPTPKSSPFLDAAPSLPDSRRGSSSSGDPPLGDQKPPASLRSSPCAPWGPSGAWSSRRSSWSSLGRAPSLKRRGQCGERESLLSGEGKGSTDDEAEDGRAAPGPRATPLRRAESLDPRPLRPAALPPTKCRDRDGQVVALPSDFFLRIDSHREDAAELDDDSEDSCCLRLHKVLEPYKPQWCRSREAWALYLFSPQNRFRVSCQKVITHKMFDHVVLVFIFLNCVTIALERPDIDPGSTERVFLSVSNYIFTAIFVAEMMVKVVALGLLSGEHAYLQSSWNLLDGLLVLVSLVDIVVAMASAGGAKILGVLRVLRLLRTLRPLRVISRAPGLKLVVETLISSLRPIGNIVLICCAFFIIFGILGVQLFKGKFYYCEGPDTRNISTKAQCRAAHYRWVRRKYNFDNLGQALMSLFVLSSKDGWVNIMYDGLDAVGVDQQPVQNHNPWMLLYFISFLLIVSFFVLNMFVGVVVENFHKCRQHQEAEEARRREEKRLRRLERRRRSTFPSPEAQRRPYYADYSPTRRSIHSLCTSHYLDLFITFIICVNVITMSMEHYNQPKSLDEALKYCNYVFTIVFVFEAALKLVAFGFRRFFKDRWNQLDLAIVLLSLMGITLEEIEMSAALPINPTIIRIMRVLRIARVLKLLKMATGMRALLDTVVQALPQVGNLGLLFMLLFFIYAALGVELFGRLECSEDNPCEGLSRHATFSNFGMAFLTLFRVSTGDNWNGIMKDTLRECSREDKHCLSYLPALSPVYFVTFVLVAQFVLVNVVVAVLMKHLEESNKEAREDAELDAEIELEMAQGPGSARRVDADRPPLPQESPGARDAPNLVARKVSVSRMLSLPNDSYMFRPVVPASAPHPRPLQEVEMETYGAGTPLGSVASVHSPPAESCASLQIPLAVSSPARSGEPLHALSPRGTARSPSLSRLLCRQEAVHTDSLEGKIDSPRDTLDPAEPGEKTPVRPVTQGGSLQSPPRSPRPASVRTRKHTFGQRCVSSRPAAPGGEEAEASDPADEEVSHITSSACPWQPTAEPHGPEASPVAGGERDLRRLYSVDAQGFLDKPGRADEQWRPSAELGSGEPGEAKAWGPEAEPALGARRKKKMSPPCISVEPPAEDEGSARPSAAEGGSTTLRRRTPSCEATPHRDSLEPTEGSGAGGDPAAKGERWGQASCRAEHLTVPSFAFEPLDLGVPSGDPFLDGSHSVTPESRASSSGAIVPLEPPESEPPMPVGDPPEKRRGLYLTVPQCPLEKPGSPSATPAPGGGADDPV

SMILES: Cc1cc(C(=O)Nc2ccc3c(c2)C(=O)N(C)[C@H]2CC[C@H](CC(=O)N[C@@H](C)c4ccccc4)O[C@H]2CO3)no1
- AC50 [1]: 0.478 µM (active)

SMILES: COc1cc(C2=NOC(C(=O)NCc3ccc(F)cc3)C2)cc(OC)c1OC (configuration not stated)
- IC50 [2]: > 80 µM (inactive)

SMILES: Cc1cccc(NS(=O)(=O)c2ccc(-c3cnc(C4CC4)o3)cc2)c1
- IC50 [2]: 67 µM (inactive)

SMILES: C/C(=N\NC(=O)c1ccccc1Cl)c1ccccn1
- EC50 [3]: 5.67 µM (active)
- EC50 (BJ [4]): 13.5 µM (active)
- EC50 (BJ [5]): 14.8 µM (active)
- EC50 [6]: 6.44 µM (active)
- EC50 (BJ [7]): 12.2 µM (active)
- EC50 [8]: 9.67 µM (active)
- IC50 (Nonstructural protein 1): 11.1 µM (active)
- EC50 [9]: 5.56 µM (active)
- EC50 [10]: 1.5 µM (active)
- AC50 (INS1): 1.4 µM (active)
- EC50 [11]: 17.5 µM (active)

SMILES: COc1cc(OC)c(/C=C2\C(=O)Nc3ccccc32)c(OC)c1
- IC50 [2]: 69.6 µM (inactive)

SMILES: Cc1cc(C(=O)Nc2cccc3c2O[C@H](CN(C)Cc2ccc(C(=O)Nc4ccccc4N)cc2)[C@H](C)CN([C@H](C)CO)C3=O)n(C)n1
- AC50 [12]: 3.15 µM (active)

SMILES: CCOC(=O)C1(Cc2ccccc2C)CCCN(Cc2ccc(NC(C)=O)cc2)C1 (configuration not stated)
- EC50 [13]: 3.35 µM (active)

SMILES: COc1cccc(-c2cc3nc(NCCCN(C)C)n(C)c(=O)c3s2)c1
- AC50 [14]: 30.6 µM (active)
- AC50 [15]: 7.04 µM (active)

SMILES: COc1ccc(CC(=O)Nc2nc(-c3ccc(F)c(F)c3)cs2)cc1OC
- IC50 [2]: 51.3 µM (inactive)
- AC50 (INS1): 6.65 µM (active)

SMILES: C[C@@H]1CCCCO[C@H](CN(C)Cc2ccc(C(F)(F)F)cc2)[C@@H](C)CN([C@H](C)CO)C(=O)c2cc(NS(=O)(=O)c3ccc(Cl)cc3)ccc2O1
- AC50 [12]: 3.33 µM (active)

SMILES: CCn1c(=N)c(C(=O)NC)cc2c(=O)n3cccc(C)c3nc21
- AC50 [14]: 19.9 µM (active)

SMILES: CCN1CCN(c2nc(N)c([N+](=O)[O-])c(Nc3cccc(C)c3)n2)CC1
- AC50 [14]: 12.4 µM (active)

SMILES: C[C@@H]1CCCCO[C@H](CN(C)C(=O)Nc2ccc(C(F)(F)F)cc2)[C@@H](C)CN([C@H](C)CO)C(=O)c2cc(NC(=O)Nc3ccc(F)cc3)ccc2O1
- AC50 [12]: 1.35 µM (active)

SMILES: O=C(CN1CCCCCC1)N1c2ccccc2Sc2ccccc21
- EC50 [13]: 1.68 µM (active)

SMILES: C[C@H]1CN([C@@H](C)CO)C(=O)c2cc(NC(=O)Nc3ccccc3)ccc2O[C@H]1CN(C)Cc1ccc(C(=O)Nc2ccccc2N)cc1
- AC50 [12]: 4.89 µM (active)

SMILES: Cc1ccc2oc(=O)c3cc(C(=O)NCCCN4C(C)CCCC4C)sc3c2c1 (configuration not stated)
- AC50 [14]: 100 µM (inactive)

SMILES: CCOC(=O)c1[nH]c(C=O)c(C(=O)OCC)c1C
- IC50 [2]: > 80 µM (inactive)

SMILES: COc1ccc(OC)c(CN2CCCC(C(=O)c3sccc3C)C2)c1 (configuration not stated)
- EC50 [13]: 1.88 µM (active)

SMILES: COc1ccc(CN(C(=O)c2snc(C(N)=O)c2N)C(CC(C)C)C(=O)NC2CCCCC2)cc1 (configuration not stated)
- EC50 [13]: 1.33 µM (active)

SMILES: COc1cccc(N(C(=O)Cn2nnc(-c3ccc(C)cc3)n2)C(C(=O)NC(C)(C)C)c2c[nH]c3ccccc23)c1 (configuration not stated)
- AC50 (Cytochrome P450 2D6): 20 µM (inconclusive)
- EC50 [16]: 8.67 µM (active)

SMILES: C[C@H](CO)N1C[C@H](C)[C@H](CN(C)C(=O)Nc2cccc3ccccc23)Oc2c(NC(=O)Nc3ccc4c(c3)OCO4)cccc2C1=O
- AC50 [12]: 11.9 µM (active)

SMILES: CCOC(=O)c1[nH]c(C)c(C(=O)OCC(=O)NC(C)c2ccc(F)cc2)c1C (configuration not stated)
- IC50 [2]: > 80 µM (inactive)

SMILES: Cc1ccc(C(O)(c2ccc(C)c(C)c2)C2CN3CCC2CC3)cc1C (configuration not stated)
- AC50 [17]: 10.1 µM (active)

SMILES: O=C1CCCN2N=C(SCC(=O)Nc3cccc(C(F)(F)F)c3)SC2=N1
- AC50 [18]: 2.95 µM (active)
- AC50 [19]: 4.37 µM (active)
- AC50 [20]: 5.46 µM (active)

SMILES: C[C@@H]1CCCCO[C@H](CN(C)Cc2ccc(Cl)c(Cl)c2)[C@@H](C)CN([C@H](C)CO)C(=O)c2cc(NC(=O)Nc3ccccc3)ccc2O1
- AC50 [12]: 3.65 µM (active)

SMILES: c1ccc(Cn2c(NCc3ccco3)nc3ccccc32)cc1
- EC50 [13]: 0.596 µM (active)

SMILES: Cc1ccc(N(C)S(=O)(=O)c2ccc(-c3cnc(C4CC4)o3)cc2)cc1
- IC50 [2]: > 80 µM (inactive)
